Measurements: patent publication US11224565B2, “N-acyldipeptide derivatives and their uses” (NeoStrata Company, Inc., priority 2011, dated 2022)
Peptide text beside a SMILES is read from it.

Assays:
Assay type in all cases: in vivo, human
[1] = tested on: Aging related changes of skin, nail and hair; assay: Summary of test results in volunteer subjects: aging related changes; conditions: efficacy grade
Disturbed keratinization = assay: Summary of test results in volunteer subjects: disturbed keratinization; conditions: efficacy grade
Method in brief: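 Volunteers applied N-acyldipeptide derivatives dissolved in water/ethanol/propylene glycol 40:40:20, ethanol/propylene glycol 80:20, or water/propylene glycol 80:20 mixed into oil-in-water cream, on involved skin once or twice daily for several weeks or until clearing. Vehicle applied twice daily as control; disturbed keratinization lesions assessed clinically.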

[2] = tested on: inflammation, dermatitis, or eczema lesions; assay: Topical application to chronic inflammation, dermatitis, eczema or allergic skin lesions, clinical evaluation; conditions: for skin color of treated skin compared to surrounding untreated skin: 4 weeks, 0.5% N-Ac-L-Tyr-L-Tyr-NH2 solution or 0.4% N-Ac-L-Val-L-Ala-NH2 in WEP442
Description: In another embodiment, the volunteer subject topically applied the test compositions containing N-acyldipeptide derivatives of the present invention on involved skin or lesions once or twice daily for several weeks or until the involved lesions completely cleared and clinically changed to normal skin. As a control study, the subject also topically applied a vehicle control composition on the involved skin or lesions twice daily for the same period.

[3] = tested on: Deranged immune disorders and inflammation; assay: Summary of test results in volunteer subjects: deranged immune disorders and inflammation; conditions: efficacy grade
Method in brief: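 Volunteers applied N-acyldipeptide derivatives topically once or twice daily for several weeks or until lesions cleared. Compounds were dissolved in water/ethanol/propylene glycol (40:40:20) or ethanol/propylene glycol (80:20), or in water/propylene glycol (80:20) mixed into an oil-in-water cream. Vehicle control applied twice daily.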

Nerve disorders = assay: Summary of test results in volunteer subjects: nerve disorders; conditions: efficacy grade
Method in brief: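 Volunteers applied N-acyldipeptide derivatives dissolved in water/ethanol/propylene glycol (40:40:20), ethanol/propylene glycol (80:20), or water/propylene glycol (80:20) mixed into cream, once or twice daily for several weeks or until lesions cleared. Vehicle control applied twice daily; application also over arthritic joints or painful muscles.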

[4] = chronic eczema of legs, twice daily, 2% (w/v) N-Ac-L-Val-L-Ala-NH2 cream on one leg, 0.5% (w/w) N-Ac-L-Tyr-L-Tyr-NHNHAc in WEP442 pH 5.5 on the other
[5] = chronic eczema right leg, twice daily
[6] = chronic eczema right leg, twice daily, 0.5% (w/v) N-Ac-L-Tyr-L-Tyr-NH2 solution pH 6.7 on one lesion, 0.4% (w/v) N-Ac-L-Val-L-Ala-NH2 in WEP442 pH 5.8 on second

## CC(=O)N[C@H](C(=O)N[C@@H](C)C(N)=O)C(C)C [N-Ac-L-Val-L-Ala-NH2] (Ac-Val-Ala-NH2)
[1]
  AG: 4+ (4+: 95-100% Efficacy)
Disturbed keratinization
  DK: 4+ (4+: 95-100% Efficacy)
[2]; 0.5% (w/w) cream twice daily, skin allergy from shellfish with reddish papules
  itch after topical application: stopped within a few minutes
[2]; 0.5% (w/w) cream twice daily, skin allergy from shellfish, end of 5 days
  improvement as judged by clinical evaluation: 75%
[2]; [4]
  itch after topical application: stopped within a few minutes
[2]; [5]
  skin color of treated skin compared to surrounding untreated skin: much lighter in skin color
[2]; [6]
  itch after topical application: stopped within a few minutes
[3]
  DI: 4+ (4+: 95-100% Efficacy)
Nerve disorders
  ND: 4+ (4+: 95-100% Efficacy)

## CC(=O)N[C@@H](Cc1ccc(O)cc1)C(=O)N[C@@H](Cc1ccc(O)cc1)C(N)=O [N-Ac-L-Tyr-L-Tyr-NH2] (Ac-Tyr-Tyr-NH2)
[1]
  AG: 4+ (4+: 95-100% Efficacy)
Disturbed keratinization
  DK: 4+ (4+: 95-100% Efficacy)
[2]; [5]
  skin color of treated skin compared to surrounding untreated skin: much lighter in skin color
[2]; [6]
  itch after topical application: stopped within a few minutes
[3]
  DI: 4+ (4+: 95-100% Efficacy)
Nerve disorders
  ND: 4+ (4+: 95-100% Efficacy)

## CC(=O)NNC(=O)[C@H](Cc1ccc(O)cc1)NC(=O)[C@H](Cc1ccc(O)cc1)NC(C)=O [N-Ac-L-Tyr-L-Tyr-NHNHAc]
[1]
  AG: 3+ (3+: 75% Efficacy)
Disturbed keratinization
  DK: 4+ (4+: 95-100% Efficacy)
[2]; [4]
  itch after topical application: stopped within a few minutes
[2]; chronic eczema, twice daily, two weeks, 0.6% (w/w) N-Ac-L-Tyr-L-Tyr-NHNH2 cream on one set of lesions, 0.7% (w/w) N-Ac-L-Tyr-L-Tyr-NHNHAc cream on another
  improvement as judged by clinical evaluation: 100%
[2]; chronic eczema, twice daily, 0.6% (w/w) N-Ac-L-Tyr-L-Tyr-NHNH2 cream on one set of lesions, 0.7% (w/w) N-Ac-L-Tyr-L-Tyr-NHNHAc cream on another
  itch after topical application: stopped immediately
[3]
  DI: 4+ (4+: 95-100% Efficacy)
Nerve disorders
  ND: 4+ (4+: 95-100% Efficacy)
